Laboratory results reported in PMC11434840, “Discovery of Benzopyrone-Based Candidates as Potential Antimicrobial and Photochemotherapeutic Agents through Inhibition of DNA Gyrase Enzyme B: Design, Synthesis, In Vitro and In Silico Evaluation” (Pharmaceuticals, 2024).
Read-outs that look alike come from different tables or passages of the source.

Columns and labels:
[1] = tested on: Escherichia coli ATCC 25922; test: Antimicrobial agar cup-plate assay, E. coli; assay type: cell-based; conditions: 0.1 mL of compound in DMF, overnight incubation, mean ± SD, at least three experiments
Description: (§1) The antimicrobial activity of all newly synthesized compounds was determined using the agar cup-plate method using the Hi-Media agar medium. Xanthotoxin, tobramycin, and amphotericin B were used as reference drugs. All newly synthesized compounds were tested against two strains of Gram-positive bacteria (Bacillus subtilis ATCC 14579 and Staphylococcus aureus ATCC 25923), Gram-negative bacteria (Escherichia coli ATCC 25922), and yeast (Candida albicans ATCC 10231).
(§2) The nutrient agar medium consists of 0.3% of beef extract, 0.5% of peptone, 0.1% dipotassium hydrogen phosphate, and 1.5% agar. Broth cultures of the organisms were prepared by incubating slant agar seeded with the organisms overnight.
(§3) The prepared broth culture (0.02 mL) was carefully added to sterile Petri dishes. Then, 10 mL of the liquefied nutrient agar medium was poured into each dish, mixed uniformly, and allowed to solidify. Using a sterilized cork borer, cups (9 mm) were scooped out of the agar media contained in the Petri dishes. Each test compound (50 mg) was dissolved in 1 mL DMF (50 mg mL^−1), which was used as a stock solution to carry out the twofold dilution technique. A fixed volume (0.1 mL) of the tested compounds dissolved in dimethylformamide (DMF) was added. Each plate contained a cup filled with DMF to disregard the effect of solvent. Additionally, two other cups were filled with tobramycin and xanthotoxin being used as reference drugs. The plates were incubated overnight to examine the antimicrobial activity. Zones of inhibition obtained by each test compound were measured in millimeters and the results are recorded in Table 2.
(§4) GraphPad Prism-version 5 (GraphPad Software, Inc., La Jolla, CA, USA) was used for statistical analysis.

[2] = tested on: Bacillus subtilis ATCC 14579; test: Photosensitizing assay (MIC before and after UV irradiation, agar cup-plate); assay type: cell-based; parameters: key to MIC (mg mL^−1) Control / MIC (mg mL^−1) Test / MIC (mM) Control / MIC (mM) Test: -: no activity; conditions: B. subtilis; for MIC: Bacillus subtilis, ATCC14579, light or radiation study
Description: The photosensitizing activity was determined using the agar cup-plate method (described in Section 2.3) with Hi-Media agar medium. The antibacterial activity against Bacillus subtilis ATCC 14579 was measured before and after exposure to UV lamp (365 nm). The diameters of the inhibition zones were measured in mm and the results were compared with xanthotoxin. The tested organism used was Bacillus subtilis.
For the photosensitizing activity, xanthotoxin was used as a reference drug and DMF as a negative control. The minimum inhibitory concentrations (MIC) were determined using the agar cup-plate method. Each test compound (50 mg) was dissolved in 1 mL DMF (50 mg mL^−1), which was used as a stock solution to carry out the twofold dilution technique. The sample size for all the compounds was adjusted to 0.1 mL. The solution of the test compound (0.1 mL) was added to the cups. The plates were divided into test plates and duplicate plates. Before irradiation, the test plates were incubated in the dark at 37 °C for 3 h to permit the diffusion of the tested compounds through the agar layer. The duplicate plates were incubated overnight and used as a control for the determination of the antibacterial activity. The covers were removed from the test plates, and the dishes were exposed to UV lamp (365 nm) for 20 min. After irradiation, the plates were left overnight in the dark at 37 °C. MIC, the least concentration preventing visible bacterial growth, was determined in both the control and test, indicating the antibacterial and photosensitizing activity of the tested compounds, respectively.
To evaluate the significance of the difference in the results, each experiment was repeated at least three times. […] GraphPad Prism-version 5 (GraphPad Software, Inc., La Jolla, CA, USA) was used to perform statistical analysis of the results.

[3] = tested on: Bacillus subtilis ATCC 14579; test: Antimicrobial agar cup-plate assay, B. subtilis; assay type: cell-based; parameters: key: -: no activity; conditions: 0.1 mL of compound in DMF, overnight incubation, mean ± SD, at least three experiments
Description: as §1, §2, §3, §4

[4] = tested on: Staphylococcus aureus ATCC 25923; test: Antimicrobial agar cup-plate assay, S. aureus; assay type: cell-based; parameters: key: -: no activity; conditions: 0.1 mL of compound in DMF, overnight incubation, mean ± SD, at least three experiments
Description: as §1, §2, §3, §4

[5] = tested on: Candida albicans ATCC 10231; test: Antimicrobial agar cup-plate assay, C. albicans; assay type: cell-based; parameters: key to Inhibition Zone (mm) C. albicans: -: no activity; conditions: 0.1 mL of compound in DMF, overnight incubation, mean ± SD, at least three experiments
Description: as §1, §2, §3, §4

[6] = molecular target: T1, E. coli DNA gyrase (Escherichia coli, UniProt P0AES6); test: In vitro DNA gyrase supercoiling inhibitory assay; assay type: biochemical; conditions: mean ± SD of three separate experiments
T1 construct: purchased John Innes Enterprises Ltd
Description: The supercoiling assay, based on DNA triplex, formation [43] was performed on the black streptavidin-coated 96-well microtiter plates (Thermo Scientific Pierce). Serial dilutions of the tested compounds and standard drugs were prepared, starting from 5.0 U/mL (5.0, 2.5, 1.25, 0.625, 0.312, 0.156, and 0.078 U/mL). The plates were first rehydrated with the supplied wash buffer [20 mM Tris-HCl (pH 7.6), 137 mM NaCl 0.01% (w/v), BSA 0.05% (v/v) Tween 20] and oligonucleotide was immobilized onto the wells. The excess oligonucleotide was then washed off, and the enzyme assay was carried out in the wells.
The final reaction volume of 30 μL in buffer [35 mM Tris × HCl (pH 7.5), 24 mM KCl, 4 mM MgCl2, 2 mM DTT (dithiothreitol), 1.8 mM spermidine, 1 mM ATP, 6.5% (w/v) glycerol, 0.1 mg/mL albumin] contained 1.5 U of gyrase from E. coli, 0.75 μg of relaxed pNO1 plasmid, and 3 μL of inhibitor solution in 10% DMSO and 0.008% Tween 20. Reactions were incubated for 30 min at 37 °C and after the addition of the TF buffer [50 mM NaOAc (pH 5.0), 50 mM NaCl, and 50 mM MgCl2], which terminated the enzymatic reaction for another 30 min at rt to allow the triplex formation. The unbound plasmid was then washed off using TF buffer, and a solution of SybrGOLD stain in T10 buffer [10 mM Tris × HCl (pH 8.0) and 1 mM EDTA] was added. After mixing, the fluorescence (excitation: 495 nm, emission: 537 nm) was measured using BioTek Synergy HT microplate reader. […] GraphPad Prism-version 5 (GraphPad Software, Inc., La Jolla, CA, USA) was used to determine the IC50 values of both the tested compounds and standard drugs across the different concentrations.

[7] = 20 min, after irradiation with UV lamp (365 nm) for 20 min (photosensitizing activity), 100 μL per cup, read-out: MIC (mg mL^−1) Test
[8] = 20 min, after irradiation with UV lamp (365 nm) for 20 min (photosensitizing activity), read-out: MIC (mM) Test
[9] = without irradiation (antibacterial activity), 100 μL per cup, read-out: MIC (mg mL^−1) Control
[10] = without irradiation (antibacterial activity), read-out: MIC (mM) Control
[11] = after irradiation with UV lamp (365 nm) for 20 min (photosensitizing activity)
[12] = after irradiation with UV lamp (365 nm) for 20 min (photosensitizing activity), 100 μL per cup
[13] = without irradiation (antibacterial activity)
[14] = without irradiation (antibacterial activity), 100 μL per cup
[15] = IC50 (μM) DNA gyrase supercoiling
[16] = IC50 (μg mL^−1) DNA gyrase supercoiling

| SMILES | melting point | Inhibition Zone (mm) E. coli [1] | MIC [2, 7] | MIC [2, 8] | MIC [2, 9] | MIC [2, 10] | Inhibition Zone (mm) B. subtilis [3] | Inhibition Zone (mm) S. aureus [4] | Inhibition Zone (mm) C. albicans [5] | MIC (mM) Test [2, 11] | MIC (mg mL^−1) Test [2, 12] | MIC (mM) Control [2, 13] | MIC (mg mL^−1) Control [2, 14] | IC50 [6, 15] | IC50 [6, 16] |
| --- | --- | --- | --- | --- | --- | --- | --- | --- | --- | --- | --- | --- | --- | --- | --- |
| CCc1cc2c(C)cc(=O)oc2cc1OCC(=O)c1ccccc1 [Compound 7a, 6-Ethyl-4-methyl-7-phenacyloxy-2H-1-benzopyran-2-one] | 165 to 166 °C | 20 ± 0.8165 mm | 1500 mg/L | 4.65 mM | 6250 mg/L | 19.4 mM | 12 ± 1.414 mm | 28 ± 1.414 mm | - |  |  |  |  |  |  |
| CCc1cc2c(C)cc(=O)oc2cc1OCC(=O)c1ccc(C)cc1 [Compound 7b, 6-Ethyl-4-methyl-7-(4-methylphenacyloxy)-2H-1-benzopyran-2-one] | 136 to 139 °C | 20 ± 1.414 mm | 190 mg/L | 0.56 mM | 1500 mg/L | 4.46 mM | 13 ± 1.414 mm | 24 ± 1.414 mm | - |  |  |  |  |  |  |
| CCc1cc2c(C)cc(=O)oc2cc1OCC(=O)c1ccc(OC)cc1 [Compound 7c, 6-Ethyl-4-methyl-7-(4-methoxyphenacyloxy)-2H-1-benzopyran-2-one] | 162 to 164 °C | 15 ± 1.414 mm | 3120 mg/L | 8.87 mM | 12500 mg/L | 35.5 mM | 10 ± 1.414 mm | - | - |  |  |  |  |  |  |
| CCc1cc2c(-c3ccccc3)cc(=O)oc2cc1OCC(=O)c1ccccc1 [Compound 7d, 6-Ethyl-7-phenacyloxy-4-phenyl-2H-1-benzopyran-2-one] | 153 to 155 °C | 16 ± 1.414 mm | 6250 mg/L | 16.3 mM | 6250 mg/L | 16.3 mM | 9 ± 1.414 mm | - | - |  |  |  |  |  |  |
| CCc1cc2c(-c3ccccc3)cc(=O)oc2cc1OCC(=O)c1ccc(C)cc1 [Compound 7e, 6-Ethyl-7-(4-methylphenacyloxy)-4-phenyl-2H-1-benzopyran-2-one] | 225 to 226 °C | 20 ± 0.8165 mm |  |  |  |  | - | - | - | - | - | - | - ^d |  |  |
| CCc1cc2c(-c3ccccc3)cc(=O)oc2cc1OCC(=O)c1ccc(OC)cc1 [Compound 7f, 6-Ethyl-7-(4-methoxyphenacyloxy)-4-phenyl-2H-1-benzopyran-2-one] | 183 to 185 °C | 23 ± 0.8165 mm |  |  |  |  | - | - | 16 ± 0.8165 mm | - | - | - | - |  |  |
| CCc1cc2c(C)cc(=O)oc2c2c(-c3ccccc3)coc12 [Compound 8a, 9-Ethyl-7-methyl-3-phenyl-5H-furo[2,3-h]benzopyran-5-one] | 103 to 105 °C | 30 ± 1.414 mm | 97 mg/L | 0.32 mM | 310 mg/L | 1.02 mM | 20 ± 1.414 mm | 25 ± 1.414 mm | - |  |  |  |  | 7.89 ± 0.117 µM | 7.89 µM |
| CCc1cc2c(C)cc(=O)oc2c2c(-c3ccc(C)cc3)coc12 [Compound 8b, 9-Ethyl-7-methyl-3-(4-methylphenyl)-5H-furo[2,3-h]benzopyran-5-one] | 149 to 151 °C | 30 ± 1.414 mm | 97 mg/L | 0.3 mM | 780 mg/L | 2.45 mM | 10 ± 1.414 mm | 30 ± 1.414 mm | - |  |  |  |  | 38.6 ± 0.513 µM | 38.6 µM |
| CCc1cc2c(-c3ccccc3)cc(=O)oc2c2c(-c3ccccc3)coc12 [Compound 8d, 3,7-Diphenyl-9-ethyl-5H-furo[2,3-h]benzopyran-5-one] | 178 to 180 °C | 30 ± 0.8165 mm | 97 mg/L | 0.26 mM | 780 mg/L | 2.13 mM | 12 ± 0.8165 mm | 23 ± 1.414 mm | - |  |  |  |  | 0.76 ± 0.0223 µM | 0.764 µM |

Second part, led by results:

| melting point | SMILES | Inhibition Zone (mm) E. coli [1] | MIC [2, 7] | MIC [2, 8] | MIC [2, 9] | MIC [2, 10] | Inhibition Zone (mm) B. subtilis [3] | Inhibition Zone (mm) S. aureus [4] | Inhibition Zone (mm) C. albicans [5] | MIC (mM) Test [2, 11] | MIC (mg mL^−1) Test [2, 12] | MIC (mM) Control [2, 13] | MIC (mg mL^−1) Control [2, 14] | IC50 [6, 15] | IC50 [6, 16] |
| --- | --- | --- | --- | --- | --- | --- | --- | --- | --- | --- | --- | --- | --- | --- | --- |
| 110 to 111 °C | CCc1cc2c(C)cc(=O)oc2c2c(-c3ccc(OC)cc3)coc12 [Compound 8c, 9-Ethyl-3-(4-methoxyphenyl)-7-methyl-5H-furo[2,3-h]benzopyran-5-one] | 24 ± 1.414 mm | 97 mg/L | 0.29 mM | 780 mg/L | 2.33 mM | 12 ± 1.414 mm | 20 ± 0.8165 mm | - |  |  |  |  |  |  |
| 80 to 81 °C | CCc1cc2c(-c3ccccc3)cc(=O)oc2c2c(-c3ccc(C)cc3)coc12 [Compound 8e, 9-Ethyl-3-(4-methylphenyl)-7-phenyl-5H-furo[2,3-h]benzopyran-5-one] | 25 ± 0.8165 mm | 97 mg/L | 0.25 mM | 390 mg/L | 1.03 mM | 20 ± 1.414 mm | 22 ± 1.414 mm | - |  |  |  |  |  |  |
| 150 to 153 °C | CCc1cc2c(-c3ccccc3)cc(=O)oc2c2c(-c3ccc(OC)cc3)coc12 [Compound 8f, 9-Ethyl-3-(4-methoxyphenyl)-7-phenyl-5H-furo[2,3-h]benzopyran-5-one] | 18 ± 0.8165 mm | 3120 mg/L | 7.88 mM | 6250 mg/L | 15.8 mM | 14 ± 1.414 mm | 20 ± 1.414 mm | - |  |  |  |  |  |  |
